These results are taken from patent publication EP4570805A1, “TRICYCLIC COMPOUNDS AND MEDICAL USE THEREOF” (Chia Tai Tianqing Pharmaceutical Group Co., Ltd., priority 2022, dated 2024).

For test [1], the system named is Capan-1 cells. Nature of the test: Inhibitory activity for Capan-1 cell proliferation (CCK-8). In kind it is cell-based. The note with it: 5 days incubation. How it is done: Capan-1 cells in a well-growing state were collected into a centrifuge tube, adjusted to a cell density of 1.5 × 10^4 cells/mL, and inoculated onto a 96-well plate (100 µL/well). […] Meanwhile, a control was set. After 5 days of incubation in the cell incubator, the assay reagent CCK-8 (manufacturer: Dojindo Laboratories, Beijing; 10 µL/well) was added. After 4 h of incubation in the cell incubator, the absorbance was measured at 450 nm on a PerkinElmer Envision microplate reader. A four-parameter analysis was performed, a dose-response curve was fitted, and IC50 was calculated.

For test [2], the system named is AsPc-1 cells. Kind of test: Inhibitory activity for AsPc-1 cell proliferation (CCK-8). It counts as cell-based, human. As for the experimental part:
AsPc-1 cells in a well-growing state were collected into a centrifuge tube, adjusted to a cell density of 3 × 10^4 cells/mL, and inoculated onto a 96-well plate (100 µL/well). The compounds were added using a nanoliter pipettor such that the final concentrations of the compounds were 5000 nM-0.31 nM (the addition was performed in duplicate). Meanwhile, a control was set. After 72 h of incubation in the cell incubator, the assay reagent CCK-8 (manufacturer: Dojindo Laboratories; 10 µL/well) was added. After 3 h of incubation in the cell incubator, the absorbance was measured at 450 nm on a PerkinElmer Envision microplate reader. A four-parameter analysis was performed, a dose-response curve was fitted, and IC50 was calculated.

The mark [3] stands for this setting: Homo sapiens, ASPC1, 72 h incubation.

Molecules are shown by their SMILES.

As usually defined, the IC50 is the point on the concentration scale where inhibition reaches its midpoint. A higher IC50 goes with a need for much substance. With `CC(c1cccnc1N)N1c2nc(OC[C@@]34CCCN3C[C@H](F)C4)nc3c(F)c(-c4cccc5ccc(F)c(Cl)c45)nc(c23)OC[C@@H]1C` (single isomer, unassigned) [Example 124], the concentration for half-maximal inhibition (IC50) in test [1] (Homo sapiens, CAPAN-1, 120 h) was below 100 nM; in test [2] (setting [3]), at most 100 nM.

Regarding `C#Cc1c(F)ccc2cc(O)cc(-c3nc4c5c(nc(OCC6(CN7CCOCC7)CC6)nc5c3F)N(C(C)c3cccnc3N)[C@@H](C)CO4)c12` (single isomer, unassigned) [Example 69], the IC50 is below 100 nM in test [1] (Homo sapiens, CAPAN-1, 120 h) and at most 100 nM in test [2] (setting [3]).

On to `C#Cc1c(F)ccc2cc(O)cc(-c3nc4c5c(nc(OCCN6CCCC6)nc5c3F)N(C(C)c3cccnc3N)[C@@H](C)CO4)c12` (single isomer, unassigned) [Example 138], for which the IC50 in test [1] (Homo sapiens, CAPAN-1, 120 h) is below 100 nM; in test [2] (setting [3]), at most 100 nM.

For the compound `C#Cc1c(F)ccc2cc(O)cc(-c3nc4c5c(nc(OC[C@@]67CCCN6C/C(=C\F)C7)nc5c3F)N(C(C)c3cccnc3N)[C@@H](C)CO4)c12` (single isomer, unassigned) [Example 177], the figures for the IC50 in test [1] and in test [2] (72 h incubation) were below 100 nM and at most 100 nM, respectively.

In the case of `C#Cc1c(F)ccc2cc(O)cc(-c3nc4c5c(nc(OC[C@@]67CCCN6C[C@H](F)C7)nc5c3F)N(CC)CCO4)c12` [Example 3], the IC50 in test [1] (Homo sapiens, CAPAN-1, 120 h) fell in the range of 100 to 500 nM; in test [2] (setting [3]), 100 to 500 nM.

In the case of `C#Cc1c(F)ccc2cc(O)cc(-c3nc4c5c(nc(OCC6(CN(C)C)CC6)nc5c3F)N(C(C)c3cccnc3N)[C@@H](C)CO4)c12` (single isomer, unassigned) [Example 150], the IC50 in test [1] (Homo sapiens, CAPAN-1, 120 h) is below 100 nM; in test [2] (setting [3]) it was at most 100 nM.

`C#Cc1c(F)ccc2cc(O)cc(-c3nc4c5c(nc(OCC67CCCN6CC(F)C7)nc5c3F)N(C(C)c3cccnc3N)C(C)CO4)c12` (single isomer, unassigned) [Example 39]: the IC50 is below 100 nM in test [1] (Homo sapiens, CAPAN-1, 120 h) and at most 100 nM in test [2] (setting [3]).

Regarding `C#Cc1c(F)ccc2cccc(-c3nc4c5c(nc(OCC67CCCN6CC(F)C7)nc5c3F)N(C(C)c3cccnc3N)C(C)CO4)c12` (single isomer, unassigned) [Example 47], the IC50 in test [1] (Homo sapiens, CAPAN-1, 120 h) is below 100 nM; in test [2] (setting [3]), at most 100 nM.

For `[2H]C([2H])(Oc1nc2c3c(nc(-c4cc(O)cc5ccc(F)c(C#C)c45)c(F)c3n1)OCCN2C(C)c1cccnc1N)[C@@]12CCCN1C[C@H](F)C2` (stereo partly drawn) [Example 51], the IC50 was below 100 nM in test [1] (Homo sapiens, CAPAN-1, 120 h) and at most 100 nM in test [2] (setting [3]).

Take `[2H]C([2H])(Oc1nc2c3c(nc(-c4cccc5ccc(F)c(C#C)c45)c(F)c3n1)OC[C@H](C)N2C(C)c1cccnc1N)[C@@]12CCCN1C[C@H](F)C2` (single isomer, unassigned) [Example 114]: the results for the IC50 in test [1] and in test [2] (72 h incubation) were below 100 nM and at most 100 nM, respectively.

Turning to `C#Cc1c(F)ccc2cc(O)cc(-c3nc4c5c(nc(OC[C@@H]6C[C@H](F)CN6C)nc5c3F)N(C(C)c3cccnc3N)[C@@H](C)CO4)c12` (single isomer, unassigned) [Example 105], the IC50 in test [1] (Homo sapiens, CAPAN-1, 120 h) was below 100 nM; in test [2] (setting [3]) it was at most 100 nM.

Take `C#Cc1c(F)ccc2cc(O)cc(-c3nc4c5c(nc(OC[C@@H]6C[C@@H](F)CN6C)nc5c3F)N(C(C)c3cccnc3N)[C@@H](C)CO4)c12` (single isomer, unassigned) [Example 146]: the IC50 is below 100 nM in test [1] (Homo sapiens, CAPAN-1, 120 h) and at most 100 nM in test [2] (setting [3]).

Take `C#Cc1c(F)ccc2cc(O)cc(-c3nc4c5c(nc(OC[C@@]67CCCN6C[C@H](F)C7)nc5c3F)N(C(C)(C)C)CCO4)c12` [Example 31]: the IC50 in test [1] (Homo sapiens, CAPAN-1, 120 h) fell in the range of 100 to 500 nM; in test [2] (setting [3]) it was 100 to 500 nM.

Take `CC(c1cccnc1N)N1c2nc(OC[C@@]34CCCN3C[C@H](F)C4)nc3c(F)c(-c4cccc5cccc(Cl)c45)nc(c23)OC[C@@H]1C` (stereo partly drawn) [Example 115]: the IC50 in test [1] (Homo sapiens, CAPAN-1, 120 h) is below 100 nM; in test [2] (setting [3]), at most 100 nM.

Turning to `[2H]C([2H])(Oc1nc2c3c(nc(-c4cccc5ccc(F)c(C#C)c45)c(F)c3n1)OC[C@H](C)N2C(C)c1cccnc1N)[C@@]12CCCN1C[C@H](F)C2` (single isomer, unassigned) [Example 113], the IC50 in test [1] (Homo sapiens, CAPAN-1, 120 h) was below 100 nM; in test [2] (setting [3]) it was at most 100 nM.
